In ChEMBL document CHEMBL1641603, “Inhibition of β-carbonic anhydrases with ureido-substituted benzenesulfonamides” (Bioorg Med Chem Lett, 2011):

Target: T1, PROBABLE TRANSMEMBRANE CARBONIC ANHYDRASE (CARBONATE DEHYDRATASE) (CARBONIC DEHYDRATASE) (Mycobacterium tuberculosis, UniProt P96878)
T1 sequence (P96878 whole entry): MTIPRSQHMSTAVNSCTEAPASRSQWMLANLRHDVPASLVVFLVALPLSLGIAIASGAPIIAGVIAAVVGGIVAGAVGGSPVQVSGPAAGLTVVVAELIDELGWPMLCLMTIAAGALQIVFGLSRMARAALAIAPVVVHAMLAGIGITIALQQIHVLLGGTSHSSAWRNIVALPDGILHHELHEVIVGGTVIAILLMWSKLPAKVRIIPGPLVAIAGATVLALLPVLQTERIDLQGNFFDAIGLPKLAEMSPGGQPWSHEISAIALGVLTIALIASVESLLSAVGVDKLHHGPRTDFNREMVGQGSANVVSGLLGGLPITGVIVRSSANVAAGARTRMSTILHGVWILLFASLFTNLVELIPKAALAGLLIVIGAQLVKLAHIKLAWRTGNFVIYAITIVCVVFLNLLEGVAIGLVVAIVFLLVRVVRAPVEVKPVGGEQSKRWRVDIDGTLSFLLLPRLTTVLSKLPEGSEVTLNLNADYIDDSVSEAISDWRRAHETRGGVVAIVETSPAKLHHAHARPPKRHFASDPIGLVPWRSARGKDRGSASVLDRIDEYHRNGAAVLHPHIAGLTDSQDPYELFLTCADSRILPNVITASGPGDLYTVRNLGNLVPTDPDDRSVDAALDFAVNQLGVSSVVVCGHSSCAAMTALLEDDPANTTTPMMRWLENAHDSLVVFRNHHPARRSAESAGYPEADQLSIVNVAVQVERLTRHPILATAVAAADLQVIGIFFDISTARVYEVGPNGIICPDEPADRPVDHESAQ

Work on `Nc1ccc(S(N)(=O)=O)cc1` [SULFANILAMIDE] yielded a Ki of 6.24 µM.
